“And” between values parts separate entries of the source, which are not always exact repeats. Equal values may be shown once.
Key:
COX-1 = target: T1, COX-1 (Ovis aries, UniProt P05979); assay: In vitro cyclooxygenase inhibition assay (colorimetric COX inhibitor screening kit, PGE2 synthesis), COX-1; format: biochemical; conditions: duplicate determinations; 0.01 to 550 μM
T1 construct: purchased Cayman Chemical Company 560131
T1 sequence (P05979 25-600): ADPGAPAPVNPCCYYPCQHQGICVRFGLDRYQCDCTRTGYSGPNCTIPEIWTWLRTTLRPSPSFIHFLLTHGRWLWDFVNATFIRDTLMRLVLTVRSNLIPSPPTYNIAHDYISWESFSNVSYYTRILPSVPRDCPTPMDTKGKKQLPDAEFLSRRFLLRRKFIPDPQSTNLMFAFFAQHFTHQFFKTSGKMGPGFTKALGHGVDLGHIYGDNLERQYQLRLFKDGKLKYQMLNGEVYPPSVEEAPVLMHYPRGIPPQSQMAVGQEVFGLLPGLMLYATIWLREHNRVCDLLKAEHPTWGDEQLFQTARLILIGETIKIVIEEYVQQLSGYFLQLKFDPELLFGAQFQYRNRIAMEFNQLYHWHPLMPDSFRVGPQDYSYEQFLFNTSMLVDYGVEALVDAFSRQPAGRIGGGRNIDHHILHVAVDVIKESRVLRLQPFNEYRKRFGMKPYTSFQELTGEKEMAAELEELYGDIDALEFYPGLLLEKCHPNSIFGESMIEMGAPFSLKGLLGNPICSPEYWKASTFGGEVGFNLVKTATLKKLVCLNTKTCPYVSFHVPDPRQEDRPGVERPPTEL

COX-2 = target: T2, COX-2 (Homo sapiens, UniProt P35354); assay: In vitro cyclooxygenase inhibition assay (colorimetric COX inhibitor screening kit, PGE2 synthesis), COX-2; format: biochemical; conditions: for IC50: duplicate determinations, 0.01 to 550 μM; for COX-2/COX-1 selectivity ratio: ratio of IC50 values (μM)
T2 construct: purchased Cayman Chemical Company 560131
T2 sequence (P35354 18-604): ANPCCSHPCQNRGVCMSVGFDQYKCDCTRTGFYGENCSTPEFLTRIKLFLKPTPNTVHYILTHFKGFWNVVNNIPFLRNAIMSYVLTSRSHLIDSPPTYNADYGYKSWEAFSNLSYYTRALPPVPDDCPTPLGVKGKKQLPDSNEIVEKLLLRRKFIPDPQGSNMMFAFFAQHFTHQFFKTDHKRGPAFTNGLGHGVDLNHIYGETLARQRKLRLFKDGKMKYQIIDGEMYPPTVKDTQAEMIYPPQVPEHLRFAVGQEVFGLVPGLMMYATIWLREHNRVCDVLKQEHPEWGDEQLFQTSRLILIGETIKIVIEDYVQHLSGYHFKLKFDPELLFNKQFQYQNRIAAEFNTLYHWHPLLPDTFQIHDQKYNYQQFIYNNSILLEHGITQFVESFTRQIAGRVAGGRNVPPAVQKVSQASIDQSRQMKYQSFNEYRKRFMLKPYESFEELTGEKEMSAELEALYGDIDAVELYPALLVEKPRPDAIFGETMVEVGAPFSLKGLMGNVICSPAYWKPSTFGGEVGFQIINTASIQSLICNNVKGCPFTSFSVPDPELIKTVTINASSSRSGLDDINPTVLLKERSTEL

hyperuricemia rats = assay: Hyperuricemia rat model (adenine/dry yeast), uric acid in serum and urine; format: in vivo, Sprague-Dawley (SD) rats; conditions: oral, 5 days, Wosi 0.5, 1, 2 g/kg, vs model group
Procedure: The rats were divided into six groups, and each group comprised of 10 animals which were control, model, Benzbromarone (0.01 mg/kg), Wosi (0.5, 1, and 2 g/kg) groups. Briefly, 10% dry yeast solution of 1.25% adenine (10 ml/kg) was given orally administration for 15 consecutive days to induce the hyperuricemia in each animal except those of control groups. The solution of 0.5% CMC-Na was given to the control groups. On the 10th day, the Wosi and Benzbromarone were orally administered continuously 24 h 5 days. Normal saline was given to the control and model groups. Collecting 14th and 15th days of rat urine (24 h) and recording the volume. It was centrifuged at 3,500 g for 5 min to remove the precipitations. On the 15th day, rats were first anesthetized with pentobarbital sodium (i.p., 70 mg/kg body weight), 1 h after the final drug treatment. Then the blood sample was collected and centrifuged at 3000 g for 5 min to obtain the serum. Serum were kept under −20°C.
According to manufacturer’s instructions, using a standard diagnostic kit, was used in order to evaluate the concentration of uric acid concentration in serum and urine.

[1] = test system: COX-2 and VCAM-1 protein expression; assay: Immunohistochemistry of COX-2 and VCAM-1 protein in ankle joint synovial tissue of MSU-induced rats; format: in vivo, Sprague-Dawley (SD) rats; conditions: 7 days, colchicine 0.2 mg/kg
Procedure: (§1) Rats were divided as aforementioned. Wosi at three doses (0.5, 1, and 2 g/kg) were orally administration once daily for 7 days in Wosi groups. Meanwhile, colchicine was orally administration once daily for 7 days in colchicine groups. The injection of the MSU crystal was performed on the fifth day for each animal except those of control groups. 0.9% sterile saline was given to the control group. On the seventh day, rats were first anesthetized with pentobarbital sodium (i.p., 70 mg/kg body weight) at 30 min after the last dosing, Blood samples were taken from rat femoral artery with heparinized needles which were allowed to clot for 1 h at room temperature and centrifuged at 3,000 g for 10 min to obtain serum. Serum samples were stored at −20°C until the ELISA testing, then rats were sacrificed by femoral artery exsanguination. Meanwhile, the ankle joint surrounding tissues were collected for the immunohistochemical analyze and frozen at −80°C.
The method of immunohistochemical staining for the ankle joint was as following the previous studies. Briefly, the sections were deparaffinized and […] by xylene and ethanol. […] Finally, the sections were washed with TBS three times, and antibody binding was detected using 3,3′-diaminobenzidine tetrahydrochloride (DAB). […] Stained sections were dehydrated and then each section was analyzed by microscope and image output system.

[2] = test system: serum cytokines IL-6, IL-1β, IL-2, IL-10, IFN-γ; assay: Serum inflammatory cytokines (ELISA) in MSU-induced rats; format: in vivo, Sprague-Dawley (SD) rats; conditions: oral 7 days, Wosi 0.5, 1, 2 g/kg, colchicine 0.2 mg/kg
Procedure: as §1
The levels of interleukin 6 (IL-6), interleukin 1 beta, interleukin 2 (IL-2), interleukin 10 (IL-10), and interferon gamma (IFN-γ) in the serum were measured using ELISA kits according to manufacturer’s instructions.

cyclooxygenase-2 = test system: cyclooxygenase-2; set-up: method as in Ringbom et al., 1998; conditions: ref Ringbom et al., 1998; cited from earlier work

In the case of C[C@@H]1O[C@@H](O[C@@H]2[C@@H](O)[C@H](O[C@H]3CC[C@]4(C)[C@H]5CC=C6[C@@H]7CC(C)(C)CC[C@]7(C(=O)O)CC[C@@]6(C)[C@]5(C)CC[C@H]4C3(C)C)O[C@H](C(=O)O)[C@H]2O)[C@H](O)[C@H](O)[C@H]1O [Compound a, 3-O-[α-L-pyranrhamnose(1-3)-β-D-pyranglucuronic acid]-oleanolic acid], the IC50 (COX-1) is reported as 443 µM, the IC50 (COX-2) is reported as 298 µM and the COX-2/COX-1 selectivity ratio (COX-2) is reported as 0.67.
CC1(C)CC[C@]2(C(=O)O[C@@H]3O[C@H](CO)[C@@H](O)[C@H](O)[C@H]3O)CC[C@]3(C)C(=CC[C@@H]4[C@@]5(C)CC[C@H](O[C@@H]6O[C@H](C(=O)O)[C@@H](O)[C@H](O)[C@H]6O)C(C)(C)[C@@H]5CC[C@]43C)[C@@H]2C1 [Compound b, 3-O-(β-D-pyranglucuronic acid)-oleanolic acid-28-O-β-D-pyran glucoside] showed an IC50 (COX-1) of 488 µM, an IC50 (COX-2) of 294 µM and a COX-2/COX-1 selectivity ratio (COX-2) of 0.60.
In the case of C[C@@H]1O[C@@H](O[C@@H]2[C@@H](O)[C@H](O[C@H]3CC[C@]4(C)[C@H]5CC=C6[C@@H]7CC(C)(C)CC[C@]7(C(=O)O[C@@H]7O[C@H](CO)[C@@H](O)[C@H](O)[C@H]7O)CC[C@@]6(C)[C@]5(C)CC[C@H]4C3(C)C)O[C@H](C(=O)O)[C@H]2O)[C@H](O)[C@H](O)[C@H]1O [Compound c, 3-O-[α-L-pyranrhamnose(1-3)-β-D-pyranglucuronic acid]-oleanolic acid-28-O-β-D-pyran glucoside], the IC50 (COX-1) is reported as 538 µM, the IC50 (COX-2) is reported as 384 µM and 349 µM and the COX-2/COX-1 selectivity ratio (COX-2) is reported as 0.65 and 0.64.
For CCc1oc2ccccc2c1C(=O)c1cc(Br)c(O)c(Br)c1 [benzbromarone, Benzbromarone], the “serum level of uric acid” value (hyperuricemia rats) was “recovered to that of the normal animals” and the “urine uric acid excretion (24 h)” value (hyperuricemia rats) was “recovered to that of the normal animals”.
For COc1cc2c(c(OC)c1OC)-c1ccc(OC)c(=O)cc1[C@@H](NC(C)=O)CC2 [colchicine, Colchicine], the “protein expression of VCAM-1 in synovial tissue (IHC, IOD)” value ([1]; Wosi 0.5, 1, 2 g/kg) was “recovered to that of the normal animals”, the “protein expression of COX-2 in synovial tissue (IHC, IOD)” value ([1]; Wosi particularly at 0.5 and 2 g/kg/day) was “recovered to that of the normal animals” and the “serum level of IFN-γ” value [2] was “inhibited IL-2, IL-1β, IL-6, and IFN-γ secretion”. For the same compound, the “serum level of IL-1β” value [2] was “inhibited IL-2, IL-1β, IL-6, and IFN-γ secretion”, the “serum level of IL-2” value [2] was “inhibited IL-2, IL-1β, IL-6, and IFN-γ secretion” and the “serum level of IL-6” value [2] was “inhibited IL-2, IL-1β, IL-6, and IFN-γ secretion”. The “serum level of IL-10” value [2] was “increased IL-10 secretion”.
For CC1(C)CC[C@]2(C(=O)O)CC[C@]3(C)C(=CC[C@@H]4[C@@]5(C)CC[C@H](O)C(C)(C)[C@@H]5CC[C@]43C)[C@@H]2C1 [oleanolic acid], the “selectivity of inhibition of cyclooxygenase-2 catalyzed prostaglandin biosynthesis” value (cyclooxygenase-2) is given as “selective inhibitors of cyclooxygenase-2 catalyzed prostaglandin biosynthesis”.
For C[C@H]1[C@H](C)CC[C@]2(C(=O)O)CC[C@]3(C)C(=CC[C@@H]4[C@@]5(C)CC[C@H](O)C(C)(C)[C@@H]5CC[C@]43C)[C@H]12 [ursolic acid], the “selectivity of inhibition of cyclooxygenase-2 catalyzed prostaglandin biosynthesis” value (cyclooxygenase-2) is listed as “selective inhibitors of cyclooxygenase-2 catalyzed prostaglandin biosynthesis”.
